The values that follow come from BindingDB's records for doi:10.1021/cb4002552 (University of California, 2013).

For the assay, the target named is Neutrophil gelatinase-associated lipocalin (Homo sapiens, UniProt P80188). Kind of assay: Fluorescence quenching titrations. Particulars: pH 7.4. The procedure:
The ligand solutions (10uM siderophore, TBS with 5% (v/v) DMSO, pH 7.4) were prepared from 4mM stock solution in DMSO. The protein solution was prepared as previously reported. Small amounts of ligand solution were mixed with the protein solution and equilibrated for at least 4 min before fluorescence measurement. The data was fit to a one-to-one binding model with two parameters, Kd and fluorescence response, using the program DYNAFIT.

The structures appear in SMILES notation.

Sequence of Neutrophil gelatinase-associated lipocalin (P80188 whole entry): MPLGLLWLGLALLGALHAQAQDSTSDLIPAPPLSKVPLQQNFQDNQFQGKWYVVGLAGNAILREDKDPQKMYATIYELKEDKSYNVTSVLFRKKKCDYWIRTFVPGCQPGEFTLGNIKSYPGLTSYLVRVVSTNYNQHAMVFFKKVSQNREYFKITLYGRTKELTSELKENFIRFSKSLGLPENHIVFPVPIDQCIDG

One may read the Kd as the concentration at which binding is half-saturated. With `C[C@@H](O)[C@H](NC(=O)c1cccc(O)c1O)C(=O)N(CCCNC(=O)c1cccc(O)c1O)CCCNC(=O)c1cccc(O)c1O` [Fluvibactin A], binding was put at a Kd of 12 nM.

Take `C[C@H]1OC(c2cccc(O)c2O)=N[C@@H]1C(=O)N(CCCNC(=O)c1cccc(O)c1O)CCCNC(=O)c1cccc(O)c1O` [Fluvibactin]: binding was characterised by a dissociation constant (Kd) of 34 nM.

As to `C[C@@H](O)[C@H](NC(=O)c1cccc(O)c1O)C(=O)NCCCN(CCCNC(=O)c1cccc(O)c1O)C(=O)[C@@H](NC(=O)c1cccc(O)c1O)[C@@H](C)O` [Vibriobactin A], the Kd stood at 18 nM.
